Results as given in patent publication US11498899B2, “Nitrone herbicides” (FMC Corporation, priority 2016, dated 2022).

What was measured:
[1] = system: kochia (Kochia scoparia); experiment: Test A preemergence, visual injury rating 0-100; assay type: in vivo; settings: for Kochia plant response rating: 0 to 100 scale
[2] = system: foxtail, green (green foxtail, Setaria viridis); experiment: Test A preemergence, visual injury rating 0-100; assay type: in vivo; settings: for Foxtail, Green plant response rating: 0 to 100 scale
[3] = system: pigweed (Amaranthus retroflexus); experiment: Test A preemergence, visual injury rating 0-100; assay type: in vivo; settings: for Pigweed plant response rating: 0 to 100 scale
[4] = system: ragweed (common ragweed, Ambrosia elatior); experiment: Test A preemergence, visual injury rating 0-100; assay type: in vivo; settings: for Ragweed plant response rating: 0 to 100 scale
[5] = system: ryegrass, Italian (Italian ryegrass, Lolium multiflorum); experiment: Test A preemergence, visual injury rating 0-100; assay type: in vivo; settings: for Ryegrass, Italian plant response rating: 0 to 100 scale
[6] = system: barnyardgrass (Echinochloa crus-galli); experiment: Test A preemergence, visual injury rating 0-100 (0 no effect, 100 complete control); assay type: in vivo; settings: for Barnyardgrass plant response rating (0 to 100 scale): 125 g ai/ha; for Barnyardgrass plant response rating: 500 g ai/ha, 0 to 100 scale
[7] = system: barnyardgrass (Echinochloa crus-galli); experiment: Test B flooded paddy test, visual rating 0-100; settings: Flood, 250 g ai/ha, applied to paddy water, rated after 13 to 15 days
[8] = system: ducksalad (Heteranthera limosa); experiment: Test B flooded paddy test, visual rating 0-100; settings: Flood, 250 g ai/ha, applied to paddy water, rated after 13 to 15 days
[9] = system: rice (Oryza sativa); experiment: Test B flooded paddy test, visual rating 0-100 (0 no effect, 100 complete control); settings: Flood, 250 g ai/ha, applied to paddy water, rated after 13 to 15 days
[10] = system: kochia (Kochia scoparia); experiment: Test A postemergence, visual injury rating 0-100; assay type: in vivo; settings: 0 to 100 scale
[11] = system: blackgrass (Alopecurus myosuroides); experiment: Test A postemergence, visual injury rating 0-100; assay type: in vivo; settings: 0 to 100 scale
[12] = system: corn (Zea mays); experiment: Test A postemergence, visual injury rating 0-100; assay type: in vivo; settings: 0 to 100 scale
[13] = system: galium (catchweed bedstraw, Galium aparine); experiment: Test A postemergence, visual injury rating 0-100; assay type: in vivo; settings: 0 to 100 scale
[14] = system: foxtail, green (green foxtail, Setaria viridis); experiment: Test A postemergence, visual injury rating 0-100; assay type: in vivo; settings: 0 to 100 scale
[15] = system: pigweed (Amaranthus retroflexus); experiment: Test A postemergence, visual injury rating 0-100; assay type: in vivo; settings: 0 to 100 scale
[16] = system: wheat (Triticum aestivum); experiment: Test A postemergence, visual injury rating 0-100; assay type: in vivo; settings: 0 to 100 scale
[17] = system: barnyardgrass (Echinochloa crus-galli); experiment: Test A postemergence, visual injury rating 0-100; assay type: in vivo; settings: 0 to 100 scale
[18] = system: ragweed (common ragweed, Ambrosia elatior); experiment: Test A postemergence, visual injury rating 0-100; assay type: in vivo; settings: 0 to 100 scale
[19] = system: ryegrass, Italian (Italian ryegrass, Lolium multiflorum); experiment: Test A postemergence, visual injury rating 0-100; assay type: in vivo; settings: 0 to 100 scale

| SMILES | Kochia plant response rating (0 to 100 scale) ([1]; 125 g ai/ha) | Foxtail, Green plant response rating (0 to 100 scale) ([2]; 125 g ai/ha) | Pigweed plant response rating (0 to 100 scale) ([3]; 125 g ai/ha) | Ragweed plant response rating (0 to 100 scale) ([4]; 125 g ai/ha) | Ryegrass, Italian plant response rating (0 to 100 scale) ([5]; 125 g ai/ha) | Barnyardgrass plant response rating (0 to 100 scale) [6] | Barnyardgrass plant response rating [6] | Barnyardgrass plant response rating (0 to 100 scale) [7] | Ducksalad plant response rating (0 to 100 scale) [8] | Rice plant response rating (0 to 100 scale) [9] | Kochia plant response rating ([10]; 125 g ai/ha) | Kochia plant response rating ([10]; 500 g ai/ha) | Blackgrass plant response rating ([11]; 125 g ai/ha) | Blackgrass plant response rating ([11]; 500 g ai/ha) | Corn plant response rating ([12]; 125 g ai/ha) | Corn plant response rating ([12]; 500 g ai/ha) | Foxtail, Green plant response rating ([14]; 125 g ai/ha) | Foxtail, Green plant response rating ([14]; 500 g ai/ha) | Pigweed plant response rating ([15]; 125 g ai/ha) | Pigweed plant response rating ([15]; 500 g ai/ha) | other results |
| --- | --- | --- | --- | --- | --- | --- | --- | --- | --- | --- | --- | --- | --- | --- | --- | --- | --- | --- | --- | --- | --- |
| CC1=[N+]([O-])C(C(=O)Nc2cccc(F)c2F)C(c2ccccc2)C1 (racemic) [Compound 16] | 0 | 100 | 0 | 0 | 0 | 100 | 100 | 85 | 100 | 0 | 0 | 20 | 0 | 0 | 0 | 0 | 10 | 80 | 0 | 20 | Kochia plant response rating ([1]; 500 g ai/ha): 30; Foxtail, Green plant response rating ([2]; 500 g ai/ha): 100; Pigweed plant response rating ([3]; 500 g ai/ha): 70; Ragweed plant response rating ([4]; 500 g ai/ha): 20; Ryegrass, Italian plant response rating ([5]; 500 g ai/ha): 0; Galium plant response rating ([13]; 125 g ai/ha): 0; Galium plant response rating ([13]; 500 g ai/ha): 30; Wheat plant response rating ([16]; 125 g ai/ha): 0; Wheat plant response rating ([16]; 500 g ai/ha): 0; Barnyardgrass plant response rating ([17]; 125 g ai/ha): 80; Barnyardgrass plant response rating ([17]; 500 g ai/ha): 90; Ragweed plant response rating ([18]; 125 g ai/ha): 0; Ragweed plant response rating ([18]; 500 g ai/ha): 20; Ryegrass, Italian plant response rating ([19]; 125 g ai/ha): 0; Ryegrass, Italian plant response rating ([19]; 500 g ai/ha): 0 |
| CC1=[N+]([O-])C(C(=O)Nc2ccccc2[S+](C)[O-])C(c2ccc(C(F)(F)F)cc2)C1 (racemic) [Compound 44] | 0 | 0 | 20 | 0 | 0 | 0 | 70 | 0 | 0 | 0 | 0 | 10 | 0 | 20 | 0 | 0 | 0 | 30 | 0 | 20 | Kochia plant response rating (0 to 100 scale) ([1]; 500 g ai/ha): 0; Foxtail, Green plant response rating (0 to 100 scale) ([2]; 500 g ai/ha): 100; Pigweed plant response rating (0 to 100 scale) ([3]; 500 g ai/ha): 90; Ragweed plant response rating (0 to 100 scale) ([4]; 500 g ai/ha): 80; Ryegrass, Italian plant response rating (0 to 100 scale) ([5]; 500 g ai/ha): 0; Wheat plant response rating ([16]; 125 g ai/ha): 0; Wheat plant response rating ([16]; 500 g ai/ha): 0; Barnyardgrass plant response rating ([17]; 125 g ai/ha): 0; Barnyardgrass plant response rating ([17]; 500 g ai/ha): 0; Ragweed plant response rating ([18]; 125 g ai/ha): 0; Ragweed plant response rating ([18]; 500 g ai/ha): 0; Ryegrass, Italian plant response rating ([19]; 125 g ai/ha): 0; Ryegrass, Italian plant response rating ([19]; 500 g ai/ha): 0 |
| CC1=[N+]([O-])C(C(=O)Nc2ccc(F)cc2F)C(c2ccc(C(F)(F)F)cc2)C1 (racemic) [Compound 46] | 0 | 90 | 50 | 0 | 0 | 70 | 100 | 40 | 100 | 20 | 0 | 40 | 20 | 70 | 0 | 40 | 40 | 90 | 0 | 30 | Kochia plant response rating (0 to 100 scale) ([1]; 500 g ai/ha): 90; Foxtail, Green plant response rating (0 to 100 scale) ([2]; 500 g ai/ha): 100; Pigweed plant response rating (0 to 100 scale) ([3]; 500 g ai/ha): 90; Ragweed plant response rating (0 to 100 scale) ([4]; 500 g ai/ha): 90; Ryegrass, Italian plant response rating (0 to 100 scale) ([5]; 500 g ai/ha): 0; Wheat plant response rating ([16]; 125 g ai/ha): 0; Wheat plant response rating ([16]; 500 g ai/ha): 20; Barnyardgrass plant response rating ([17]; 125 g ai/ha): 10; Barnyardgrass plant response rating ([17]; 500 g ai/ha): 90; Ragweed plant response rating ([18]; 125 g ai/ha): 0; Ragweed plant response rating ([18]; 500 g ai/ha): 30; Ryegrass, Italian plant response rating ([19]; 125 g ai/ha): 0; Ryegrass, Italian plant response rating ([19]; 500 g ai/ha): 40 |
| CC1=[N+]([O-])[C@H](C(=O)Nc2cccc(F)c2F)[C@@H](c2ccc3c(c2)OC(F)(F)O3)C1 (relative stereo) [Compound 25, rel-(2S,3R)-3-(2,2-Difluoro-1,3-benzodioxol-5-yl)-N-(2,3-difluorophenyl)-3,4-dihydro-5-methyl-2H-pyrrole-2-carboxamide 1-oxide] | 50 | 90 | 80 | 50 | 80 | 90 | 90 | 75 | 90 | 0 | 60 | 60 | 20 | 40 | 60 | 80 | 40 | 90 | 60 | 70 | Kochia plant response rating ([1]; 500 g ai/ha): 80; Foxtail, Green plant response rating ([2]; 500 g ai/ha): 90; Pigweed plant response rating ([3]; 500 g ai/ha): 90; Ragweed plant response rating ([4]; 500 g ai/ha): 100; Ryegrass, Italian plant response rating ([5]; 500 g ai/ha): 50; Wheat plant response rating ([16]; 125 g ai/ha): 70; Wheat plant response rating ([16]; 500 g ai/ha): 90; Barnyardgrass plant response rating ([17]; 125 g ai/ha): 70; Barnyardgrass plant response rating ([17]; 500 g ai/ha): 90; Ragweed plant response rating ([18]; 125 g ai/ha): 40; Ragweed plant response rating ([18]; 500 g ai/ha): 50; Ryegrass, Italian plant response rating ([19]; 125 g ai/ha): 40; Ryegrass, Italian plant response rating ([19]; 500 g ai/ha): 50 |
| CC1=[N+]([O-])[C@H](C(=O)Nc2ccc(F)nc2F)[C@@H](c2ccc(C(F)(F)F)cc2)C1 (relative stereo) [Compound 37, rel-(2S,3R)—N-(2,6-Difluoro-3-pyridinyl)-3,4-dihydro-5-methyl-3-[4-(trifluoromethyl)phenyl]-2H-pyrrole-2-carboxamide 1-oxide] | 70 | 90 | 80 | 90 | 0 | 90 | 100 | 45 | 100 | 0 | 10 | 70 | 20 | 90 | 20 | 50 | 60 | 90 | 0 | 70 | Kochia plant response rating (0 to 100 scale) ([1]; 500 g ai/ha): 90; Foxtail, Green plant response rating (0 to 100 scale) ([2]; 500 g ai/ha): 100; Pigweed plant response rating (0 to 100 scale) ([3]; 500 g ai/ha): 100; Ragweed plant response rating (0 to 100 scale) ([4]; 500 g ai/ha): 100; Ryegrass, Italian plant response rating (0 to 100 scale) ([5]; 500 g ai/ha): 0; Wheat plant response rating ([16]; 125 g ai/ha): 10; Wheat plant response rating ([16]; 500 g ai/ha): 60; Barnyardgrass plant response rating ([17]; 125 g ai/ha): 40; Barnyardgrass plant response rating ([17]; 500 g ai/ha): 70; Ragweed plant response rating ([18]; 125 g ai/ha): 0; Ragweed plant response rating ([18]; 500 g ai/ha): 60; Ryegrass, Italian plant response rating ([19]; 125 g ai/ha): 0; Ryegrass, Italian plant response rating ([19]; 500 g ai/ha): 40 |
